Consider 15 compounds from patent US20100317850A1 (priority 2008, published 2010).

In this test the test system is Aβ42 production. In words: Quantification of Aβ peptide in culture of neurons from rat fetus brain (Aβ ELISA). It counts as cell-based. Particulars: rat primary neuronal culture (cerebral cortex, embryonic day 18 Wistar rats), medium collected three days after addition of the compound, Aβx-42 ELISA, read-out: Aβ42 production reducing effect IC50. The method, boiled down:
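Primary cortical neurons from embryonic day 18 Wistar rats were cultured 4 days, then exposed to compound in Neurobasal/B27 without 2-ME, final DMSO ≤1%. After three days, medium was collected and Aβx-42 measured undiluted by sandwich ELISA.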
For orientation: ELISA stands for enzyme-linked immunosorbent assay.

Read-outs that look alike come from different tables or passages of the source.

A word on the IC50: it is the concentration that gives 50% inhibition. For `COc1cccnc1C(=O)Nc1ccc(F)c([C@]23CCC[C@H]2CSC(N)=N3)c1` [Example 238], the IC50 (Neuron, 72 h) worked out at 350 nM.
Regarding `Cc1cccnc1C(=O)Nc1ccc(F)c([C@]23CCC[C@H]2CSC(N)=N3)c1` [Example 236], for the setting “Neuron, 72 h”, the IC50 was determined as 59 nM.
On the same count and under the same terms, for `NC(=O)c1ccc(C(=O)Nc2ccc(F)c([C@]34CCC[C@H]3CSC(N)=N4)c2)nc1` [Example 129] the value was 65 nM; for `CCOC(=O)c1cnc(C(=O)Nc2ccc(F)c([C@]34CCC[C@H]3CSC(N)=N4)c2)nc1` [Example 128], 231 nM.
Still for that read-out and setting: next, `COCC#Cc1ccc(C(=O)Nc2ccc(F)c([C@]34CCC[C@H]3CSC(N)=N4)c2)nc1` (single isomer, unassigned) [Example 136, N-[3-((4aR*,7aS*)-2-amino-4a,5,6,7-tetrahydro-4H-cyclopenta[d][1,3]thiazin-7a-yl)-4-fluorophenyl]-5-(3-methoxypropyn-1-yl)-pyridine-2-carboxamide]: 25 nM.
Still for that read-out and setting: for `NC1=N[C@@]2(c3cc(NC(=O)c4ncccc4Br)ccc3F)CCCC[C@H]2CS1` [Example 260] the value was 170 nM.
In the case of “N-[3-((4aR*,9aS*)-2- amino-4a,5,6,7,8,9-hexahydro-4H- cyclohepta[d][1,3]thiaziin-9a-yl)-4- fluorophenyl]-6-chloropyridine-2- carboxamide [Example 248]”, the IC50 was determined as 16 nM.
In the case of `N#Cc1ccc(C(=O)Nc2ccc(F)c([C@]34CCCCC[C@H]3CSC(N)=N4)c2)nc1` (relative stereo) [Example 33, (+)-N-[3-((4aR*,9aS*)-2-amino-4a,5,6,7,8,9-hexahydro-4H-cyclohepta[d][1,3]thiazin-9a-yl)-4-fluorophenyl]-5-cyanopyridine-2-carboxamide], the IC50 (Neuron, 72 h) is 10 nM.
For `NC1=N[C@@]2(c3cc(NC(=O)c4cnc(OC(F)F)cn4)ccc3F)C[C@H](F)C[C@H]2CS1` (relative stereo) [Example 98, (+)-N-[3-((4aR*,6R*,7aS*)-2-amino-6-fluoro-4a,5,6,7-tetrahydro-4H-cyclopenta[d][1,3]thiazin-7a-yl)-4-fluorophenyl]-5-difluoromethoxypyrazine-2-carboxamide], the IC50 (Neuron, 72 h) was 1 nM.
On the same count and under the same terms, next, `NC1=N[C@@]2(c3cc(NC(=O)c4ccc5cnccc5n4)ccc3F)CCC[C@H]2CS1` [Example 138]: 63 nM.
With `NC1=N[C@@]2(c3cc(NC(=O)c4ccc(Cl)cn4)ccc3F)COC[C@H]2CS1` (relative stereo) [Example 26, N-[3-((4aS*,7aS*)-2-amino-4a,5-dihydro-4H-furo[3,4-d][1,3]thiazin-7a-yl)-4-fluorophenyl]-5-chloropyridine-2-carboxamide], the IC50 (Neuron, 72 h) is 6.9 nM.
Same read-out and setting: next, `NC1=N[C@@]2(c3cc(NC(=O)c4ccncn4)ccc3F)CCC[C@H]2CS1` [Example 233]: 86 nM.
As for `NC1=N[C@@]2(c3cc(NC(=O)c4cnccn4)ccc3F)CCCC[C@H]2CS1` [Example 224], for the setting “Neuron, 72 h”, the IC50 came to 271 nM.
The same measure, in the same setting: for `N#Cc1ccc(C(=O)Nc2ccc(F)c([C@]34C[C@@H](F)C[C@H]3CSC(N)=N4)c2)nc1` (relative stereo) [Example 110, (+)-N-[3-((4aR*,6S*,7aS*)-2-amino-6-fluoro-4a,5,6,7-tetrahydro-4H-cyclopenta[d][1,3]thiazin-7a-yl)-4-fluorophenyl]-5-cyanopyridine-2-carboxamide] the value was 5 nM; for `NC1=N[C@@]2(c3cc(NC(=O)c4cnc(OC(F)F)cn4)ccc3F)COC[C@H]2CS1` (relative stereo) [Example 25, N-[3-((4aS*,7aS*)-2-amino-4a,5-dihydro-4H-furo[3,4-d][1,3]thiazin-7a-yl)-4-fluorophenyl]-5-difluoromethoxypyrazine-2-carboxamide], 6.1 nM.
